Test results: patent US9493411B2 (AbbVie Inc., priority 2013, dated 2016)

Legend:
[1] = tested on: breast cancer cell line MX-1; assay: MX-1 cell line proliferation assay; assay type: cell-based; settings: Homo sapiens, MX1, 72 h, MX-1 cells, 3-day proliferation assay, Cell Titer Glo; read-out: Cellular proliferation: EC50
Protocol: The impact of compounds of the Examples on cancer cell proliferation was determined using the breast cancer cell line MX-1 (ATCC) in a 3-day proliferation assay and the data are reported in Table 1. MX-1 cells were maintained in RPMI 1640 medium (Sigma) supplemented with 10% FBS at 37° C. and an atmosphere of 5% CO2. For compound testing, MX-1 cells were plated in 96-well black bottom plates at a density of 5000 cells/well in 90 μL of culture media and incubated at 37° overnight to allow cell adhesion and spreading. Compound dilution series were prepared in DMSO via a 3-fold serial dilution from 3 mM to 0.1 μM. The DMSO dilution series were then diluted 1:100 in phosphate buffered saline, and 10 μL of the resulted solution were added to the appropriate wells of the MX-1 cell plate. The final compound concentrations in the wells were 3, 1, 0.3, 0.1, 0.03, 0.01, 0.003, 0.001, 0.0003 and 0.0001 μM.
Luminescence readings from the Cell Titer Glo assay were normalized to the DMSO treated cells and analyzed using the GraphPad Prism software with sigmoidal curve fitting to obtain EC50s. The minimum significant ratio (MSR) was determined to evaluate assay reproducibility (Eastwood et al., (2006) J Biomol Screen, 11: 253-261).

BRD4 (BDII_E352-M457) = biological target: T1, BRD4 (BDII_E352-M457) (Homo sapiens, UniProt O60885); assay: TR-FRET bromodomain binding assay, BRD4 second bromodomain; settings: His-tagged BD2, Alexa647-labeled probe 30 nM; Ki calculated from IC50
T1 construct: made in house
Method in brief: (§1)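 His-tagged BRD4 BD1 (K57-E168) or BD2 at 8 nM, 1 nM Eu-anti-His antibody and Alexa647 BET-inhibitor probe (100 nM for BDI, 30 nM for BDII) in pH 6.0 phosphate buffer, 2% DMSO, compound 50 μM-0.85 nM; 1 h at RT, TR-FRET read. IC50 by 4-parameter fit, Ki from probe Kd and concentration.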

BRD4 (BDI_K57-E168) = biological target: T2, BRD4 (BDI_K57-E168) (Homo sapiens, UniProt O60885); assay: TR-FRET bromodomain binding assay, BRD4 first bromodomain; settings: His-tagged BD1, Alexa647-labeled probe 100 nM; Ki calculated from IC50
T2 construct: BD1: amino acids K57-E168; made in house
Method in brief: as §1

Row | EC50 [1] [nM] | Ki (BRD4 (BDII_E352-M457)) [nM] | Ki (BRD4 (BDI_K57-E168)) [nM] | SMILES
1 | 1130 | 2590 | 151 | Cc1[nH]c(-c2ccccc2NC2CCSCC2)cc1C(N)=O [Example 68, 2-methyl-5-[2-(tetrahydro-2H-thiopyran-4-ylamino)phenyl]-1H-pyrrole-3-carboxamide]
2 | > 3000 | 4290 | 434 | Cc1[nH]c(-c2ccccc2NC2CCOCC2)cc1C(N)=O [Example 70, 2-methyl-5-[2-(tetrahydro-2H-pyran-4-ylamino)phenyl]-1H-pyrrole-3-carboxamide]
3 | 167 | 416 | 78.1 | Cc1[nH]c(-c2ccccc2NC2C3CC4CC(C3)CC2C4)cc1C(N)=O (stereo not drawn) [Example 72, 2-methyl-5-{2-[tricyclo[3.3.1.1^3,7]dec-2-ylamino]phenyl}-1H-pyrrole-3-carboxamide]
4 | 433 | 225 | 37.6 | Cc1[nH]c(-c2ccccc2NC2CCCCC2F)cc1C(N)=O (stereo not drawn) [Example 75, 5-{2-[(2-fluorocyclohexyl)amino]phenyl}-2-methyl-1H-pyrrole-3-carboxamide]
5 | 13400 | 2980 | 4500 | Cc1[nH]c(-c2ccccc2NC(=O)Cc2ccccc2)cc1C(N)=O [Example 76, 2-methyl-5-{2-[(phenylacetyl)amino]phenyl}-1H-pyrrole-3-carboxamide]
6 | > 3000 | 653 | 237 | Cc1[nH]c(-c2ccccc2NS(=O)(=O)Cc2ccccc2)cc1C(N)=O [Example 83, 5-{2-[(benzylsulfonyl)amino]phenyl}-2-methyl-1H-pyrrole-3-carboxamide]
7 | > 3000 | 13200 | 1850 | Cc1[nH]c(-c2ccccc2NS(=O)(=O)Cc2ccc(Cl)cc2)cc1C(N)=O [Example 85, 5-(2-{[(4-chlorobenzyl)sulfonyl]amino}phenyl)-2-methyl-1H-pyrrole-3-carboxamide]
8 | > 3000 | 465 | 366 | Cc1[nH]c(-c2ccccc2NS(=O)(=O)C2CCCC2)cc1C(N)=O [Example 87, 5-{2-[(cyclopentylsulfonyl)amino]phenyl}-2-methyl-1H-pyrrole-3-carboxamide]
9 | 6300 | 5180 | 2500 | Cc1ccc(-c2cc(C(N)=O)c(C)[nH]2)c(C)c1 [Example 90, 5-(2,4-dimethylphenyl)-2-methyl-1H-pyrrole-3-carboxamide]
10 | 15300 | 1870 | 1410 | Cc1[nH]c(-c2ccc(-c3ccc(CN4CCN(C)CC4)cc3)cc2)cc1C(N)=O [Example 97, 2-methyl-5-{4′-[(4-methylpiperazin-1-yl)methyl]biphenyl-4-yl}-1H-pyrrole-3-carboxamide]
11 | 8600 | 1980 | 4020 | COC/C=C/c1ccc(-c2cc(C(N)=O)c(C)[nH]2)cc1 [Example 107, 5-{4-[(1E)-3-methoxyprop-1-en-1-yl]phenyl}-2-methyl-1H-pyrrole-3-carboxamide]
12 | 1350 | 725 | 391 | Cc1[nH]c(-c2ccccc2Oc2ccccc2F)cc1C(N)=O [Example 117, 5-[2-(2-fluorophenoxy)phenyl]-2-methyl-1H-pyrrole-3-carboxamide]
13 | 1320 | 1730 | 529 | Cc1[nH]c(-c2ccccc2Oc2ccc3cc[nH]c3c2)cc1C(N)=O [Example 118, 5-[2-(1H-indol-6-yloxy)phenyl]-2-methyl-1H-pyrrole-3-carboxamide]
14 | 998 | 1100 | 249 | Cc1[nH]c(-c2ccccc2Oc2ccc(N)cc2)cc1C(N)=O [Example 119, 5-[2-(4-aminophenoxy)phenyl]-2-methyl-1H-pyrrole-3-carboxamide]
15 | > 10000 | 10200 | 776 | Cc1[nH]c(-c2ccccc2Oc2ccc(Cc3ccccc3)cc2)cc1C(N)=O [Example 121, 5-[2-(4-benzylphenoxy)phenyl]-2-methyl-1H-pyrrole-3-carboxamide]
16 | 1600 | 192 | 180 | Cc1[nH]c(-c2ccccc2Oc2cccc3cnccc23)cc1C(N)=O [Example 125, 5-[2-(isoquinolin-5-yloxy)phenyl]-2-methyl-1H-pyrrole-3-carboxamide]

Row | EC50 [1] [nM] | Ki (BRD4 (BDII_E352-M457)) [nM] | Ki (BRD4 (BDI_K57-E168)) [nM] | SMILES
17 | 1300 | 1140 | 83.4 | Cc1[nH]c(-c2ccccc2Oc2cccnc2)cc1C(N)=O [Example 126, 2-methyl-5-[2-(pyridin-3-yloxy)phenyl]-1H-pyrrole-3-carboxamide]
18 | 2000 | 1040 | 233 | Cc1[nH]c(-c2ccccc2Oc2cccc(C#N)c2)cc1C(N)=O [Example 127, 5-[2-(3-cyanophenoxy)phenyl]-2-methyl-1H-pyrrole-3-carboxamide]
19 | 400 | 318 | 27.3 | Cc1[nH]c(-c2ccccc2Oc2cccc3ncccc23)cc1C(N)=O [Example 128, 2-methyl-5-[2-(quinolin-5-yloxy)phenyl]-1H-pyrrole-3-carboxamide]
20 | 2250 | 2240 | 281 | Cc1[nH]c(-c2ccccc2Oc2ccc(Cl)cc2F)cc1C(N)=O [Example 129, 5-[2-(4-chloro-2-fluorophenoxy)phenyl]-2-methyl-1H-pyrrole-3-carboxamide]
21 | 1770 | 1220 | 471 | Cc1[nH]c(-c2ccccc2Oc2ccc3[nH]ccc3c2)cc1C(N)=O [Example 130, 5-[2-(1H-indol-5-yloxy)phenyl]-2-methyl-1H-pyrrole-3-carboxamide]
22 | 1830 | 576 | 310 | COC(=O)CCc1ccccc1Oc1ccccc1-c1cc(C(N)=O)c(C)[nH]1 [Example 133, methyl 3-{2-[2-(4-carbamoyl-5-methyl-1H-pyrrol-2-yl)phenoxy]phenyl}propanoate]
23 | > 10000 | 1170 | 493 | Cc1cccc(Oc2ccccc2-c2cc(C(N)=O)c(C)[nH]2)c1 [Example 134, 2-methyl-5-[2-(3-methylphenoxy)phenyl]-1H-pyrrole-3-carboxamide]
24 | > 10000 | 1860 | 355 | Cc1[nH]c(-c2ccccc2Oc2ccc(-n3ccnc3)cc2)cc1C(N)=O [Example 135, 5-{2-[4-(1H-imidazol-1-yl)phenoxy]phenyl}-2-methyl-1H-pyrrole-3-carboxamide]
25 | 4880 | 1020 | 218 | COc1ccc(Oc2ccccc2-c2cc(C(N)=O)c(C)[nH]2)cc1 [Example 137, 5-[2-(4-methoxyphenoxy)phenyl]-2-methyl-1H-pyrrole-3-carboxamide]
26 | 8560 | 1190 | 728 | Cc1[nH]c(-c2ccccc2Oc2ccc3ccccc3c2)cc1C(N)=O [Example 139, 2-methyl-5-[2-(naphthalen-2-yloxy)phenyl]-1H-pyrrole-3-carboxamide]
27 | 2420 | 1600 | 123 | Cc1[nH]c(-c2ccccc2Oc2ccc(F)cc2)cc1C(N)=O [Example 141, 5-[2-(4-fluorophenoxy)phenyl]-2-methyl-1H-pyrrole-3-carboxamide]
28 | 2130 | 775 | 357 | Cc1[nH]c(-c2ccccc2Oc2cccc(Cl)c2)cc1C(N)=O [Example 142, 5-[2-(3-chlorophenoxy)phenyl]-2-methyl-1H-pyrrole-3-carboxamide]
29 | > 10000 | 3920 | 1190 | Cc1[nH]c(-c2ccccc2-n2cnc3ccc(O)cc32)cc1C(N)=O [Example 145, 5-[2-(6-hydroxy-1H-benzimidazol-1-yl)phenyl]-2-methyl-1H-pyrrole-3-carboxamide]
30 | 1610 | 326 | 74.9 | Cc1[nH]c(-c2ccccc2-n2cnc3cc(O)ccc32)cc1C(N)=O [Example 146, 5-[2-(5-hydroxy-1H-benzimidazol-1-yl)phenyl]-2-methyl-1H-pyrrole-3-carboxamide]
31 | 4320 | 605 | 355 | Cc1[nH]c(-c2ccccc2Cc2ccccc2)cc1C(N)=O [Example 148, 5-(2-benzylphenyl)-2-methyl-1H-pyrrole-3-carboxamide]
32 | 2320 | 3880 | 884 | COc1cc(-c2cc(C(N)=O)c(C)[nH]2)cc(OC)c1OC [Example 149, 2-methyl-5-(3,4,5-trimethoxyphenyl)-1H-pyrrole-3-carboxamide]
